# Source: patent US8192962B2, “Processes for detecting toxic substances” (Daikin Industries, Ltd., priority 2001, dated 2012)
# Tested on: Mitochondria-located protein genes
# Assay: DNA chip mRNA expression in yeast, mitochondria-located protein genes (Table 2)
# Format: cell-based, Saccharomyces cerevisiae S288C
# Settings: cells incubated two hours with the chemical substance
# Method: Yeast (Saccharomyces cerevisiae S288C (α SUC2mal mel gap2 CUP1)) were incubated at 25° C. on YPD medium (yeast extract 1%, polypepton 2%, glucose 2%). One of toxic chemical substances was added to the cells at logarithmic growth phase, and the cells were further incubated for two hours. Cells were cultured without any chemical substance in the same condition, and were used as control. Concentrations of the chemical substances were defined to inhibit the growth of the yeast but not lead to death.
# After completion of the incubation, the culture was centrifuged to collect the cells. To the cells, sodium acetate buffer (50 mM sodium acetate, 10 mM EDTA, 1% SDS) was added, and the mixture was shaken at 65° C. for five minutes, followed by returning to room temperature, and obtaining the supernatant, of which the procedures were repeated two times. To the supernatant, ½ amount of a solution of phenol/chloroform was added, and the mixture was centrifuged to give a supernatant, which was added with an equal amount of chloroform, and the mixture was centrifuged to give a supernatant. To the supernatant, an equal amount of isopropanol containing 0.3 M sodium acetate was added, and the mixture was allowed to stand at room temperature for 30 minutes, after which the mixture was centrifuged to give a sediment of the whole RNAs. Seventy % ethanol was added to the sediment, and the mixture was again centrifuged to give a sediment, which was then dried and dissolved in water. mRNA was isolated from the whole RNAs as followings. In view of the fact that a poly A chain is attached to the 3′ terminus of mRNA, a polynucleotide having a poly T structure which was immobilized on the surface of latex beads was used to trap the mRNA, and then the mRNA was washed and eluted with spine column (Oligotex-dT30<Super>mRNA Purification Kit, Takara). Reverse transcription of the mRNA was conducted with a reverse transcriptase (Super Script II Reverse Transcriptase; catalogue No. 18064-014, GibcoBRL) using fluorescence-labeled nucleotides to give cDNAs that were introduced with Cy3-dUTP or Cy5-dUTP during the reverse transcription.
# The labeled cDNAs were dissolved in TE buffer (10mM Tris-HCl/1 mM EDTA, pH8.0), and the solution was dropped on the DNA chip containing the whole genes of yeast (DNA Chip Research Inc. Japan) so that the cDNAs were hybridized on the DNA chip at 65° C. for over 12 hours. The fluoresces intensity of the DNA chip was read with a scanner, and the ratio relative to the fluorescence intensity resulting from the absence of chemical substance was estimated as the following, which is shown in Tables 1 to 9: […]
structure (smiles),measurement,setting,value
"S=C([S-])NCCNC(=S)[S-].[Zn+2] [(11), zinc N,N′-ethylenebis(dithiocarbamate)]",The level of expressed mRNA in the presence of chemical substance/The level of expressed mRNA in the absence of chemical substance,yeast gene YJR121W,0.9
same,The level of expressed mRNA in the presence of chemical substance/The level of expressed mRNA in the absence of chemical substance,yeast gene YKL003C,1.7
same,The level of expressed mRNA in the presence of chemical substance/The level of expressed mRNA in the absence of chemical substance,yeast gene YKL016C,1.3
same,The level of expressed mRNA in the presence of chemical substance/The level of expressed mRNA in the absence of chemical substance,yeast gene YKL141W,1.2
same,The level of expressed mRNA in the presence of chemical substance/The level of expressed mRNA in the absence of chemical substance,yeast gene YKL142W,2.0
same,The level of expressed mRNA in the presence of chemical substance/The level of expressed mRNA in the absence of chemical substance,yeast gene YKL148C,1.5
same,The level of expressed mRNA in the presence of chemical substance/The level of expressed mRNA in the absence of chemical substance,yeast gene YKL170W,0.7
same,The level of expressed mRNA in the presence of chemical substance/The level of expressed mRNA in the absence of chemical substance,yeast gene YKL194C,1.6
same,The level of expressed mRNA in the presence of chemical substance/The level of expressed mRNA in the absence of chemical substance,yeast gene YKR066C,1.3
same,The level of expressed mRNA in the presence of chemical substance/The level of expressed mRNA in the absence of chemical substance,yeast gene YLL041C,1.3
same,The level of expressed mRNA in the presence of chemical substance/The level of expressed mRNA in the absence of chemical substance,yeast gene YLR038C,1.4
same,The level of expressed mRNA in the presence of chemical substance/The level of expressed mRNA in the absence of chemical substance,yeast gene YLR259C,3.0
same,The level of expressed mRNA in the presence of chemical substance/The level of expressed mRNA in the absence of chemical substance,yeast gene YLR295C,1.3
same,The level of expressed mRNA in the presence of chemical substance/The level of expressed mRNA in the absence of chemical substance,yeast gene YLR304C,1.6
same,The level of expressed mRNA in the presence of chemical substance/The level of expressed mRNA in the absence of chemical substance,yeast gene YLR348C,1.3
same,The level of expressed mRNA in the presence of chemical substance/The level of expressed mRNA in the absence of chemical substance,yeast gene YLR395C,1.5
same,The level of expressed mRNA in the presence of chemical substance/The level of expressed mRNA in the absence of chemical substance,yeast gene YML054C,1.4
same,The level of expressed mRNA in the presence of chemical substance/The level of expressed mRNA in the absence of chemical substance,yeast gene YML120C,1.3
same,The level of expressed mRNA in the presence of chemical substance/The level of expressed mRNA in the absence of chemical substance,yeast gene YML129C,1.2
same,The level of expressed mRNA in the presence of chemical substance/The level of expressed mRNA in the absence of chemical substance,yeast gene YMR023C,0.8
same,The level of expressed mRNA in the presence of chemical substance/The level of expressed mRNA in the absence of chemical substance,yeast gene YMR035W,1.5
same,The level of expressed mRNA in the presence of chemical substance/The level of expressed mRNA in the absence of chemical substance,yeast gene YMR083W,1.6
same,The level of expressed mRNA in the presence of chemical substance/The level of expressed mRNA in the absence of chemical substance,yeast gene YMR089C,1.3
same,The level of expressed mRNA in the presence of chemical substance/The level of expressed mRNA in the absence of chemical substance,yeast gene YMR152W,1.2
same,The level of expressed mRNA in the presence of chemical substance/The level of expressed mRNA in the absence of chemical substance,yeast gene YMR203W,2.3
same,The level of expressed mRNA in the presence of chemical substance/The level of expressed mRNA in the absence of chemical substance,yeast gene YMR267W,1.0
same,The level of expressed mRNA in the presence of chemical substance/The level of expressed mRNA in the absence of chemical substance,yeast gene YNL055C,1.9
same,The level of expressed mRNA in the presence of chemical substance/The level of expressed mRNA in the absence of chemical substance,yeast gene YNL071W,1.6
same,The level of expressed mRNA in the presence of chemical substance/The level of expressed mRNA in the absence of chemical substance,yeast gene YNL073W,1.1
same,The level of expressed mRNA in the presence of chemical substance/The level of expressed mRNA in the absence of chemical substance,yeast gene YNL104C,2.1
same,The level of expressed mRNA in the presence of chemical substance/The level of expressed mRNA in the absence of chemical substance,yeast gene YNL256W,0.6
same,The level of expressed mRNA in the presence of chemical substance/The level of expressed mRNA in the absence of chemical substance,yeast gene YOL096C,1.2
same,The level of expressed mRNA in the presence of chemical substance/The level of expressed mRNA in the absence of chemical substance,yeast gene YOR020C,2.5
same,The level of expressed mRNA in the presence of chemical substance/The level of expressed mRNA in the absence of chemical substance,yeast gene YOR037W,1.2
same,The level of expressed mRNA in the presence of chemical substance/The level of expressed mRNA in the absence of chemical substance,yeast gene YOR100C,1.4
same,The level of expressed mRNA in the presence of chemical substance/The level of expressed mRNA in the absence of chemical substance,yeast gene YOR130C,0.6
same,The level of expressed mRNA in the presence of chemical substance/The level of expressed mRNA in the absence of chemical substance,yeast gene YOR142W,1.5
same,The level of expressed mRNA in the presence of chemical substance/The level of expressed mRNA in the absence of chemical substance,yeast gene YOR150W,1.0
same,The level of expressed mRNA in the presence of chemical substance/The level of expressed mRNA in the absence of chemical substance,yeast gene YOR176W,1.4
same,The level of expressed mRNA in the presence of chemical substance/The level of expressed mRNA in the absence of chemical substance,yeast gene YOR187W,1.4
same,The level of expressed mRNA in the presence of chemical substance/The level of expressed mRNA in the absence of chemical substance,yeast gene YOR316C,2.4
same,The level of expressed mRNA in the presence of chemical substance/The level of expressed mRNA in the absence of chemical substance,yeast gene YPL040C,0.9
same,The level of expressed mRNA in the presence of chemical substance/The level of expressed mRNA in the absence of chemical substance,yeast gene YPL134C,1.7
same,The level of expressed mRNA in the presence of chemical substance/The level of expressed mRNA in the absence of chemical substance,yeast gene YPL135W,1.3
same,The level of expressed mRNA in the presence of chemical substance/The level of expressed mRNA in the absence of chemical substance,yeast gene YPL215W,1.1
same,The level of expressed mRNA in the presence of chemical substance/The level of expressed mRNA in the absence of chemical substance,yeast gene YPL262W,1.4
same,The level of expressed mRNA in the presence of chemical substance/The level of expressed mRNA in the absence of chemical substance,yeast gene YPR024W,0.9
same,The level of expressed mRNA in the presence of chemical substance/The level of expressed mRNA in the absence of chemical substance,yeast gene YPR037C,0.9
same,The level of expressed mRNA in the presence of chemical substance/The level of expressed mRNA in the absence of chemical substance,yeast gene YPR047W,1.1
same,The level of expressed mRNA in the presence of chemical substance/The level of expressed mRNA in the absence of chemical substance,yeast gene YPR134W,1.3
